We go through one compound from ChEMBL document CHEMBL5705884, “Breaching the DNA damage checkpoint via PF-00477736, a novel small-molecule inhibitor of checkpoint kinase 1” (Mol Cancer Ther, 2008).

Experiment [1] concerns COLO 205. Nature of the experiment: Antitumor activity against human COLO 205 cells xenografted in athymic nude mouse model assessed as potentiated tumor growth inhibition at 12 mg/kg, ip administered once daily in presence of gemcitabine relative to control. Type of experiment: functional. As to conditions: read-out: TGI.
The subject of experiment [2] is HT-29. Nature of the experiment: Inhibition of gemcitabine induced cell cycle arrest in human HT-29 cells assessed as decrease in CDK1 phosphorylation level at 360 nM by immunoblot analysis. As to conditions: time 2-24 hrs. Type of experiment: functional, cell-based. A general note: Immunoblotting shows a protein as a band on a membrane.
Experiment [3] concerns HT-29. Nature of the experiment: Induction of apoptosis in gemcitabine induced human HT-29 cells assessed as apoptotic cell death measured after 32 hrs by PI staining based flow cytometry analysis (reference value: 1.2%). The format is functional. A general note: Flow cytometry measures light scatter and fluorescence of single cells or particles in a stream.
Experiment [4] has as its system COLO 205. Nature of the experiment: Antitumor activity against human COLO 205 cells xenografted in athymic nude mouse model assessed as gross log cell kill at 7.5 mg/kg, ip administered once daily in presence of gemcitabine (Gemcitabine alone = 0.27%). The format is functional. In general terms: In xenograft studies the graft and the host belong to different species.

The next experiment concerns PC-3. Nature of the experiment: Antiproliferative activity against human PC-3 cells deficit of p53 expression assessed as inhibition of cell growth measured after 96 hrs by MTT assay. The format is functional, cell-based. Particulars: PC-3, 96 h.
Experiment [5] concerns COLO 205. Nature of the experiment: Antitumor activity against human COLO 205 cells xenografted in athymic nude mouse model assessed as potentiated tumor growth inhibition at 15 mg/kg, ip administered twice daily in presence of gemcitabine relative to control. The format is functional. Particulars: read-out: TGI.
In experiment [6] the target is T1, Receptor-type tyrosine-protein kinase FLT3 (Homo sapiens, UniProt P36888).
T1 sequence (P36888 whole entry): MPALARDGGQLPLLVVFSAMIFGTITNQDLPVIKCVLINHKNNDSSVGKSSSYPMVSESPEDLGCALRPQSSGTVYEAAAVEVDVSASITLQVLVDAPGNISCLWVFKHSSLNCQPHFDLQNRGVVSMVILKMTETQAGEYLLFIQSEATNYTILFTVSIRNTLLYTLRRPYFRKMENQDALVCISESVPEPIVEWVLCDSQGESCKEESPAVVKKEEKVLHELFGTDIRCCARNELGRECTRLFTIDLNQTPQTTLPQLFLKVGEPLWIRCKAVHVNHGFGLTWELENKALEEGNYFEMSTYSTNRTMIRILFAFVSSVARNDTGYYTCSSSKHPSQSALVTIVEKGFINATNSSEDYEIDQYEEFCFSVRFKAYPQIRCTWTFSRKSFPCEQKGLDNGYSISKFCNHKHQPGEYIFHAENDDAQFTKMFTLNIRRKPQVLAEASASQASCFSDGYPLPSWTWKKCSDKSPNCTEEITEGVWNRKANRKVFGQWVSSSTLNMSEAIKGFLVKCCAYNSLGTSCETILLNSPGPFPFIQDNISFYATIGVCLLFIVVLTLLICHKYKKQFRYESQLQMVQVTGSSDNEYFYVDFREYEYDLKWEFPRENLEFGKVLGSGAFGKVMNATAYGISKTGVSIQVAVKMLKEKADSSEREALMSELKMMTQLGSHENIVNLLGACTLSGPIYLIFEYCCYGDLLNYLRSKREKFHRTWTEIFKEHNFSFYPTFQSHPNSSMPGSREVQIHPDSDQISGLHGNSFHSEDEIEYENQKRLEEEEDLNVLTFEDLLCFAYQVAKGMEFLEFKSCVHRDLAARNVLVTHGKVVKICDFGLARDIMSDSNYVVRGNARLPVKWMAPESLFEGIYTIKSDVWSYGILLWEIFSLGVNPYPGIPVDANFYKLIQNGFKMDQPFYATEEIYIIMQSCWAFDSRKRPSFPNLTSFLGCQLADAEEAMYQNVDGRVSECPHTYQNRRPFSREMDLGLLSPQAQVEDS
Nature of the experiment: Inhibition of FLT3 (unknown origin).

In experiment [7] the test system is COLO 205. Nature of the experiment: Antitumor activity against human COLO 205 cells xenografted in athymic nude mouse model assessed as tumor growth inhibition at 12 mg/kg, ip administered once daily in presence of gemcitabine (Gemcitabine alone= 58%). Type of experiment: functional. As to conditions: read-out: TGI.
The test system of experiment [8] is COLO 205. Nature of the experiment: In vivo inhibition of Chk1 in athymic nude mouse xenografted with gemcitabine treated human COLO 205 cells assessed as increase in phospho histone H2AX level at 7.5 to 15 mg/kg by immunohistochemical analysis. As to conditions: dose 7.5-15 mg/kg. Type of experiment: functional, organism-based.
For experiment [9], the system named is COLO 205. Nature of the experiment: Antitumor activity against human COLO 205 cells xenografted in athymic nude mouse model assessed as tumor growth inhibition at 30 mg/kg, ip administered twice daily in presence of gemcitabine (Gemcitabine alone = 40%). The format is functional. As to conditions: read-out: TGI.
Experiment [10] concerns COLO 205. Kind of experiment: Antitumor activity against human COLO 205 cells xenografted in athymic nude mouse model assessed as tumor growth delay by measuring test to control tumor ratio at 40 mg/kg, ip administered twice daily in presence of gemcitabine (Gemcitabine alone= 8%). Type of experiment: functional.
In experiment [11] the test system is COLO 205. Nature of the experiment: Potentiation factor, ratio of IC50 for human COLO 205 cells to IC50 for human COLO 205 cells in presence of SN-38. Type of experiment: functional.
The subject of experiment [12] is COLO 205. Kind of experiment: Antitumor activity against human COLO 205 cells xenografted in athymic nude mouse model assessed as tumor growth inhibition at 15 mg/kg, ip administered once daily in presence of gemcitabine (Gemcitabine alone = 40%). The format is functional. As to conditions: read-out: TGI.
In experiment [13] the test system is HT-29. Nature of the experiment: Potentiation factor, ratio of IC50 for human HT-29 cells to IC50 for human HT-29 cells in presence of doxorubicin. The format is functional.
Another experiment concerns MDA-MB-231. Kind of experiment: Potentiation factor, ratio of IC50 for human MDA-MB-231 cells to IC50 for human MDA-MB-231 cells in presence of gemcitabine. Type of experiment: functional.

Active and inactive are the calls of the source. The rule behind the calls is not given here.

For orientation: IC50 means the concentration that inhibits the measured activity by half. Take `Cn1cc(-c2[nH]c3cc(NC(=O)[C@H](N)C4CCCCC4)cc4c3c2C=NNC4=O)cn1`: the inhibition in vivo at 12 mg/kg in the experiment on COLO 205 [1] came to 23%; in the experiment on COLO 205 [7], 68%. Further, the inhibition entry with HT-29 [2] was “Dose-Dependent Effect”. The Activity in the experiment with HT-29 [3] was 18.1%. Moreover, the LCK with COLO 205 [4] amounted to 0.52. Further, the results for the concentration for half-maximal inhibition (IC50) (with PC-3; in experiment [6]) were 1600 nM and 51 nM, respectively. The inhibition in vivo at 15 mg/kg amounted to 44% in the experiment on COLO 205 [5] and 67% with COLO 205 [12]. In the experiment with COLO 205 [8], the inhibition entry is “Active”. In the experiment on COLO 205 [9], the inhibition in vivo at 30 mg/kg is 78%. Further, the T/C in the experiment on COLO 205 [10] amounted to 20. Also, the results for the PF50 in the experiment on COLO 205 [11], in the experiment with HT-29 [13] and in the experiment on MDA-MB-231 were 2.1, 2.2 and 3.6, respectively.
